In one assay the target is T1, EED (1-441)-His protein (Homo sapiens, UniProt O75530).
T1 construct: 20 nM EED (1-441)-His protein
Put plainly: EED-H3K27Me3 peptide competition binding assay by AlphaScreen. The conditions noted are these: EED Alpha screen binding assay, read-out: Alpha screen. The protocol: “N/A” stands for “not assessed”.
EED-H3K27Me3 peptide competition binding assay by AlphaScreen (α-screen)
2.5 μl of solutions containing 20 nM biotin-H3K27Me3 (19-33) peptide in the buffer (25 mM HEPES, pH 8, 0.02% Tween-20, 0.5% BSA) were added to the wells and then incubated with compound for 30 min. […] Then 10 μl of the detection beads mix was added to the plate and incubated in the dark at RT for 1 h. The final concentration of donor and acceptor beads was 10 μg/ml for each. […] The data were then fit to a dose response equation to get the IC50 values.
Background: In Alpha technology, singlet oxygen from a donor bead excites a nearby acceptor bead.

For assay [1], the system named is KARPAS422 human B cell lymphoma cell. Nature of the assay: Cell proliferation, KARPAS422, 7 day treatment (WST-8). The following applies: Homo sapiens, KARPAS-422, 168 h, 7 day treatment, read-out: Karpas Cell line. Format: cell-based. The method in brief:
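KARPAS422 cells seeded at 2 000-3 000 cells/well and exposed to serially diluted compounds for 7 days at 37 °C, 5% CO2. Growth measured by WST-8 (1-4 h, absorbance 450 nm). Readings normalized to DMSO-treated cells; IC50 from nonlinear regression.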

The next assay deals with Pfeiffer cell line. Nature of the assay: Anti-proliferative activity, Pfeiffer cell line, 7 day treatment. In kind it is cell-based. The conditions noted are these: Homo sapiens, 168 h; anti-proliferative IC50 class, Pfeiffer cell line, 7 day treatment; read-out: Pfeiffer Cell line. In outline:
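Cells seeded at 2 000-3 000 per well were treated with serially diluted compounds for 7 days at 37° C, 5% CO2. Growth was measured by WST-8 assay read at 450 nm after 1-4 h reagent incubation. Readings were normalized to DMSO-treated cells and IC50 values derived by nonlinear regression.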

[2] abbreviates: anti-proliferative IC50 class, Karpas 422 cell line.
The mark [3] stands for this setting: anti-proliferative IC50, Karpas 422 cell line.

SMILES strings stand for the structures. Like-named read-outs stand apart in the source and are kept apart here.

T1 sequence (O75530 whole entry): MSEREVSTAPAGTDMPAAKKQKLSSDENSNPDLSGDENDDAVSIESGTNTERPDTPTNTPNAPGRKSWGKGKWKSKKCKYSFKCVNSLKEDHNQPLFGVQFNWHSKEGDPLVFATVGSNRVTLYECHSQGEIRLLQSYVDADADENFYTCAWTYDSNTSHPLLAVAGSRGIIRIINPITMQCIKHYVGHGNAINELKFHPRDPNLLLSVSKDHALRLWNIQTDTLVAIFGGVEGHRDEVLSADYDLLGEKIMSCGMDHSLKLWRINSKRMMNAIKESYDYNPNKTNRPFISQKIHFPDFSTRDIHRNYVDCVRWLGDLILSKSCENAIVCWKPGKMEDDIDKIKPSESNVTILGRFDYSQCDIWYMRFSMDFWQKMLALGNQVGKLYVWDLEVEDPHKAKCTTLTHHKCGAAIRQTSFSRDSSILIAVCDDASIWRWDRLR

For the compound `Cc1ccc2c(n1)CN(CC(F)(F)F)C(=O)c1ncn3c(NCc4c(F)ccc5c4CCO5)ncc-2c13` [E 3, 12-(((5-fluoro-2,3-dihydrobenzofuran-4-yl)methyl)amino)-7-methyl-4-(2,2,2-trifluoroethyl)-4,5-dihydro-3H-2,4,6,11,12a-pentaazabenzo[4,5]cycloocta[1,2,3-cd]inden-3-one], the IC50 (on EED (1-441)-His protein (IC50 class); in assay [1] (setting [2]); in the assay with Pfeiffer cell line) was less than 10 nM throughout.
For the compound `Cc1ccc2c(n1)CN(CC(C)(F)F)C(=O)c1ncn3c(NCc4c(F)ccc5c4CCO5)ncc-2c13` [E 7, 4-(2,2-difluoropropyl)-12-(((5-fluoro-2,3-dihydrobenzofuran-4-yl)methyl)amino)-7-methyl-4,5-dihydro-3H-2,4,6,11,12a-pentaazabenzo[4,5]cycloocta[1,2,3-cd]inden-3-one], the IC50 (at EED (1-441)-His protein (IC50 class); in assay [1] (setting [2]); in the assay on Pfeiffer cell line) was less than 10 nM each time.
Regarding `[2H]C([2H])([2H])c1ccc2c(n1)CN(CC(F)(F)F)C(=O)c1ncn3c(NCc4c(F)ccc5c4CCO5)ncc-2c13` [E 19, 12-(((5-fluoro-2,3-dihydrobenzofuran-4-yl)methyl)amino)-7-(methyl-d3)-4-(2,2,2-trifluoroethyl)-4,5-dihydro-3H-2,4,6,11,12a-pentaazabenzo[4,5]cycloocta[1,2,3-cd]inden-3-one], the IC50 (on EED (1-441)-His protein (IC50 class); in assay [1] (setting [2]); with Pfeiffer cell line) was less than 10 nM each time.
As for `[2H]C([2H])(Nc1ncc2c3c(ncn13)C(=O)N(CC(F)(F)F)Cc1nc(C)ccc1-2)c1c(F)ccc2c1CCO2` [E 20, 12-(((5-fluoro-2,3-dihydrobenzofuran-4-yl)methyl-d2)amino)-7-methyl-4-(2,2,2-trifluoroethyl)-4,5-dihydro-3H-2,4,6,11,12a-pentaazabenzo[4,5]cycloocta[1,2,3-cd]inden-3-one], the IC50 (at EED (1-441)-His protein (IC50 class); in assay [1] (setting [2]); with Pfeiffer cell line) was less than 10 nM throughout.
Take `[2H]C([2H])([2H])c1ccc2c(n1)CN(CC(F)(F)F)C(=O)c1ncn3c(NC([2H])([2H])c4c(F)ccc5c4CCO5)ncc-2c13` [E 21, 12-(((5-fluoro-2,3-dihydrobenzofuran-4-yl)methyl-d2)amino)-7-(methyl-d3)-4-(2,2,2-trifluoroethyl)-4,5-dihydro-3H-2,4,6,11,12a-pentaazabenzo[4,5]cycloocta[1,2,3-cd]inden-3-one]: the IC50 (at EED (1-441)-His protein (IC50 class); in assay [1] (setting [2]); in the assay with Pfeiffer cell line) was less than 10 nM each time.
In the case of `[2H]C1Oc2ccc(F)c(C([2H])([2H])Nc3ncc4c5c(ncn35)C(=O)N(CC(F)(F)F)Cc3nc(C)ccc3-4)c2C1[2H]` (stereo not shown) [E 22, 12-(((5-fluoro-2,3-dihydrobenzofuran-4-yl-2,3-d2)methyl-d2)amino)-7-methyl-4-(2,2,2-trifluoroethyl)-4,5-dihydro-3H-2,4,6,11,12a-pentaazabenzo[4,5]cycloocta[1,2,3-cd]inden-3-one], the IC50 (at EED (1-441)-His protein (IC50 class); in assay [1] (setting [2]); in the assay on Pfeiffer cell line) was less than 10 nM each time.
Consider `[2H]C1Oc2ccc(F)c(C([2H])([2H])Nc3ncc4c5c(ncn35)C(=O)N(CC(F)(F)F)Cc3nc(C([2H])([2H])[2H])ccc3-4)c2C1[2H]` (stereo not shown) [E 23, 12-(((5-fluoro-2,3-dihydrobenzofuran-4-yl-2,3-d2)methyl-d2)amino)-7-(methyl-d3)-4-(2,2,2-trifluoroethyl)-4,5-dihydro-3H-2,4,6,11,12a-pentaazabenzo[4,5]cycloocta[1,2,3-cd]inden-3-one], for which the IC50 (at EED (1-441)-His protein (IC50 class); in assay [1] (setting [2]); in the assay with Pfeiffer cell line) was less than 10 nM each time.
As to `Cc1ccc(-c2cc(C#N)c(NCc3c(F)ccc4c3CCO4)n3cnc(S(C)(=O)=O)c23)c(C)n1` [E 25, 8-(2,6-dimethylpyridin-3-yl)-5-(((5-fluoro-2,3-dihydrobenzofuran-4-yl)methyl)amino)-1-(methylsulfonyl)imidazo[1,5-a]pyridine-6-carbonitrile], the figures for the IC50 (at EED (1-441)-His protein (IC50 class); in assay [1] (setting [2]); with Pfeiffer cell line) were less than 10 nM, 10 to 100 nM and 10 to 100 nM, respectively.
Take `CS(=O)(=O)c1ncn2c(NCc3c(F)ccc4c3CCO4)c(C#N)cc(-c3ccc(C4CC4)nc3)c12` [E 26, 8-(6-cyclopropylpyridin-3-yl)-5-(((5-fluoro-2,3-dihydrobenzofuran-4-yl)methyl)amino)-1-(methylsulfonyl)imidazo[1,5-a]pyridine-6-carbonitrile]: the IC50 at EED (1-441)-His protein (IC50 class) was 10 to 100 nM; in assay [1] (setting [2]) it was 10 to 100 nM; with Pfeiffer cell line, less than 10 nM.
For the compound `Cc1ncccc1-c1cc(C#N)c(NCc2c(F)ccc3c2CCO3)n2cnc(S(C)(=O)=O)c12` [E 27, 5-(((5-fluoro-2,3-dihydrobenzofuran-4-yl)methyl)amino)-8-(2-methylpyridin-3-yl)-1-(methylsulfonyl)imidazo[1,5-a]pyridine-6-carbonitrile], the IC50 at EED (1-441)-His protein (IC50 class) is 10 to 100 nM; in assay [1] (setting [2]), 10 to 100 nM; in the assay on Pfeiffer cell line it was less than 10 nM.
In the case of `CC(C)N1Cc2cc(C(F)(F)F)ncc2-c2cnc(NCc3c(F)ccc4c3CCO4)n3cnc(c23)C1=O` [E 40, 12-(((5-fluoro-2,3-dihydrobenzofuran-4-yl)methyl)amino)-4-isopropyl-7-(trifluoromethyl)-4,5-dihydro-3H-2,4,8,11,12a-pentaazabenzo[4,5]cycloocta[1,2,3-cd]inden-3-one], the IC50 (on EED (1-441)-His protein (IC50 class); in assay [1] (setting [2]); with Pfeiffer cell line) was less than 10 nM each time.
With `CCP(=O)(CC)c1ncn2c(NCc3c(F)ccc4c3CCO4)ncc(-c3ccc(C(F)(F)F)cc3)c12` [compound 121, diethyl(5-(((5-fluoro-2,3-dihydrobenzofuran-4-yl)methyl)amino)-8-(4-(trifluoromethyl)phenyl)imidazo[1,5-c]pyrimidin-1-yl)phosphine oxide], the IC50 was 0.31 nM on EED (1-441)-His protein and more than 100 nM in assay [1] (setting [3]).
`CCP(=O)(CC)c1ncn2c(NCc3c(F)ccc4c3CCO4)ncc(-c3ccc(S(C)(=O)=O)cc3)c12` [compound 122, diethyl(5-(((5-fluoro-2,3-dihydrobenzofuran-4-yl)methyl)amino)-8-(4-(methylsulfonyl)phenyl)imidazo[1,5-c]pyrimidin-1-yl)phosphine oxide]: the IC50 on EED (1-441)-His protein is 0.31 nM; in assay [1] (setting [3]), more than 100 nM.
Regarding `Cc1ccc(-c2cnc(NCc3c(F)ccc4c3CCO4)n3cnc(P(C)(C)=O)c23)c(C)n1` [compound 123, (8-(2,6-dimethylpyridin-3-yl)-5-(((5-fluoro-2,3-dihydrobenzofuran-4-yl)methyl)amino)imidazo[1,5-c]pyrimidin-1-yl)dimethylphosphine oxide], the IC50 on EED (1-441)-His protein was 4.74 nM; in assay [1] (setting [3]) it was 22.9 nM.
For `CCP(=O)(CC)c1ncn2c(NCc3c(F)ccc4c3CCO4)ncc(-c3ccc(F)cc3)c12` [compound 124, diethyl(5-(((5-fluoro-2,3-dihydrobenzofuran-4-yl)methyl)amino)-8-(4-fluorophenyl)imidazo[1,5-c]pyrimidin-1-yl)phosphine oxide], the IC50 is 8.04 nM at EED (1-441)-His protein and 72 nM in assay [1] (setting [3]).
Regarding `CCP(=O)(CC)c1ncn2c(NCc3c(F)ccc4c3CCO4)ncc(-c3ccc(C)nc3C)c12` [compound 125, (8-(2,6-dimethylpyridin-3-yl)-5-(((5-fluoro-2,3-dihydrobenzofuran-4-yl)methyl)amino)imidazo[1,5-c]pyrimidin-1-yl)diethylphosphine oxide], the IC50 came out at 27.6 nM on EED (1-441)-His protein and 91.7 nM in assay [1] (setting [3]).

For the origin of these results see patent US12145944B2, “Imidazopyrimidines as EED inhibitors and the use thereof” (THE REGENTS OF THE UNIVERSITY OF MICHIGAN, priority 2019, dated 2024).
